From US9856511B2, “Protease deubiquitinating inhibitor screening” (priority 2011, dated 2018)

Experiments:
[1] = Animal weight and side effects in treated tumor-bearing mice; format: in vivo
Procedure: In order to investigate the effect of b-AP15 on tumor growth in vivo, the compound was administered to mice bearing either a human tumor or mouse xenografts. FaDu head and neck carcinoma were chosen as a SCID mouse xenograft both as a model for a p53mut tumor and since this model is suitable for studies using circulating cell death biomarkers (30). Significant inhibition of FaDu tumor growth was observed following daily treatment with b-AP15 (treated/control tumor volume, T/C=0.4, p=<0.001). Similarly b-AP15 (day on/2 day off schedule) inhibited tumor growth in C57BL/6J mice bearing lung carcinomas (T/C=0.16, p=<0.01). […] To examine whether b-AP15 promotes tumor cell death in vivo, plasma levels of cytokeratin-18 (CK18) were analyzed. […] To investigate the ability of b-AP15 to inhibit proteasome deubiquitination in vivo, accumulation of poly-ubiquitin conjugates was analyzed by means of antibodies specific for K48 linked polyubiquitin chains. Histological analysis of treated tumors confirmed the accumulation of poly-ubiquitin conjugates.
Animal experiments were conducted in full accordance with Swedish governmental statutory regulations on animal welfare under permission from local ethical committees. Animals were housed at a max of five per cage and provided with sterile water and food ad libitum. All mice were monitored and weighed daily. For the head and neck carcinoma model a 100-μl cell suspension containing 1×10^6 FaDu cells was injected subcutaneously into the right rear flank of the animals. After injection, tumor growth was measured daily with calipers and the tumor volume calculated by the formula […]. When tumors had grown to a size of approximately 200 mm^3 (Day 0) mice were randomized to receive either vehicle (n=10) or b-AP15 5 mg/kg^−1 by subcutaneous injection s.c. (n=15) daily. For the colon carcinoma model, 2.5×10^6 HCT-116 colon carcinoma cells stably transfected with Bcl-2 (HCT-116^Bcl-2+) were inoculated subcutaneously into the right flank of nude mice. One day after inoculation mice were treated with 5 mg/kg^−1 by intra peritoneal injection (i.p.). Animals were inspected daily to establish the tumor onset and growth. For the lung carcinoma model a 100-μl cell suspension containing 2×10^5 Lewis Lung Carcinoma (LLC) cells was injected subcutaneously into the right rear flank of C57/B6 mice. When tumors had grown to a size of approximately 50 mm^3 (Day 0) mice were randomized to receive either vehicle (n=4) or b-AP15 5 mg/kg^−1 i.p. (n=4) with a treatment cycle consisting of two days treatment followed by two days no treatment (2 days on/2 days off) for two weeks. For the breast carcinoma model a 100-μl cell suspension containing 1×10^5 […] was injected subcutaneously into the right mammary fat pad of BALB/c mice. When tumors had grown to a size approximately 25 mm^3 (Day 0), mice were randomized to receive either vehicle (n=5) or b-AP15 2.5 mg/kg^−1 i.p. (n=5) with a treatment cycle consisting of one days treatment followed by three days no treatment (1 day on/3 days off) for 3 weeks. In the AML studies female C57BL/6J mice were injected i.v. in the tail vein with 5×10^5 C1498 AML cells. After eight days mice were randomized to receive either b-AP15 5 mg/kg^−1 (n=10) or vehicle (n=10) i.p. for 7 days (day +8 till +14). Nineteen days after malignant cell injection all of the mice were killed and histopathological manifestations of liver, ovary (target organs for this model of tumor) were evaluated and compared between groups. […]

19S RP = target: T1, 19S RP (Homo sapiens, UniProt P54578+Q9Y5K5); assay: De-ubiquitinase activity assay, purified 19S RP with ubiquitin-AMC; format: biochemical
T1 construct: purchased Boston Biochem E-366
Procedure: In vitro proteasome activity assays were performed in black 96-well microtiter plates using human 20S proteasome (Boston Biochem) in reaction buffer (25 mM Hepes, 0.5 mM EDTA, 0.03% SDS) with Suc-LLVY-AMC, Z-LLE-AMC or Boc-LRRAMC used as substrates for proteasome activity. De-ubiquitinase activity assays were performed with human 19S RP (Boston Biochem) with ubiquitin-AMC as substrate. For xenograft studies a 100-μl-cell suspension containing 1×10^6 FaDu head-neck or 2×10^5 Lewis Lung Carcinoma (LLC) cells were injected subcutaneously into the flank of SCID or C57BL/6J mice. Upon tumor take mice were randomized into control or treatment groups and administered with 5 mg kg^−1 b-AP15 or vehicle. In vivo levels of apoptosis and cell death were determined from the detection of caspase cleaved and total levels of cytokeratin-18 in plasma using M30 Apoptosense® and M65 ELISA®s assays (Peviva). […]
In vitro proteasome activity assays using 20S CP (2 nM) (Boston Biochem) were performed at 37° C. in 100-μl reaction buffer (25 mM Hepes, 0.5 mM EDTA, 0.03% SDS). […] Fluorescence was monitored using Wallac Multilabel counter or Tecan Infinite M1000 equipped with 360 nm excitation and 460 nm emission filters. […]
Dose response of b-AP15 (FIG. 11a): Purified 19S proteasomes (5 nM) were treated with indicated concentrations of b-AP15, and DUB activity was determined by detection of Ub-AMC cleavage. […]

C=CC(=O)N1C/C(=C\c2ccc([N+](=O)[O-])cc2)C(=O)/C(=C/c2ccc([N+](=O)[O-])cc2)C1 [b-AP15]
difference in weight at start and endpoint between control and treated animals ([1]; 4T1): +5.8% | difference in weight at start and endpoint between control and treated animals ([1]; FaDu xenograft): −1.3% | difference in weight at start and endpoint between control and treated animals ([1]; LLC): +2.1% | adverse side effects ([1]; b-AP15 treated group): No adverse side effects were observed | average weight loss at the conclusion of the study ([1]; b-AP15 treated group): < 5% | effect of reduced glutathione on inhibition of 19S DUB activity (19S RP; b-AP15 10 μM mixed with GSH 2 mM, 19S 5 nM): did not reduce b-AP15 mediated inhibition | reversibility of inhibition of 19S DUB activity (19S RP; recovery of activity after 50-fold rapid dilution of enzyme/b-AP15 complex): reversible inhibitor
